Results as given in patent US8962637B2, “Bicyclic compounds and their uses as dual c-SRC/JAK inhibitors” (Debiopharm S.A., priority 2010, dated 2015).

Columns and labels:
[1] = target: JAK2 (Homo sapiens (Human), UniProt O60674); experiment: TR-FRET JAK2 kinase assay; assay type: biochemical; settings: ATP 10 μM; for inhibition at 0.1 µM: read-out: JAK2 % inhibition at 100 nM, 100 nM; for inhibition at 1 µM: read-out: JAK2 % inhibition at 1 μM
Method: (§1) Compounds were screened in the TR-FRET assay for JAK2 and c-Src kinase inhibition. Ultra light poly GT (Perkin Elmer) was used as the substrate for JAK2 and c-Src with the ATP concentration of 10 μM and 50 μM, respectively. […] The dose-response curve fitting was done using GraphPad Prism software.

[2] = target: c-Src (Homo sapiens (Human), UniProt P12931); experiment: TR-FRET c-Src kinase assay; assay type: biochemical; settings: ATP 50 μM; for inhibition at 0.1 µM: read-out: c-SRC % inhibition at 100 nM, 100 nM; for inhibition at 1 µM: read-out: c-SRC % inhibition at 1 μM
Method: as §1

[3] = system: Mda-Mb-231 cells; experiment: Cell viability assay (XTT assay), Mda-Mb-231; assay type: cell-based; settings: Homo sapiens, 72 hrs
Method in brief: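 MDA-MB-231 cells seeded and dosed next day in triplicate, incubated 72 h. Medium replaced with XTT working solution for 2-5 h, absorbance read at 465 nm, and EC50 values derived from the readings.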

[4] = system: A549 cells; experiment: Cell viability assay (XTT assay), A549; assay type: cell-based; settings: Homo sapiens, 72 hrs
Method: Next day compounds were added to cells and incubated for 72 hrs. Compound treatment was done in triplicates. After 72 hrs cell culture media was aspirated from the wells and XTT working solution was added and plates were incubated for 2-5 hrs. […] EC50 values were calculated using Graphpad Prism. Tumor cell lines used in the examples of the present invention were procured from ATCC. Description of the cell lines is included in the following table: […]

[5] = system: A431 cancer cell line; experiment: Inhibition of cell growth in A431; assay type: cell-based; settings: Homo sapiens, A-431
[6] = system: pStat3; experiment: In-Cell-Western blot assay for pStat3 (ICW) in A431 cells; assay type: cell-based; settings: Homo sapiens, A-431, 2 hrs, read-out: pSTAT3 inhibition
Method in brief: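 Serum-starved (overnight) A431 cells treated with compound for 2 hrs, then fixed, permeabilized and probed with phospho-Stat3 antibody plus europium-labelled secondary. Europium signal normalized to Hoechst for cell number; IC50 calculated from normalized values.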

[7] = Volume distribution; settings: in vivo
Text: Table 8 provides some volume distribution values of the compounds of the present invention.

[8] = target: JAK1 (Homo sapiens (Human), UniProt P23458); experiment: JAK1 kinase inhibition; assay type: biochemical
[9] = system: A549 tumor cells; experiment: A549 xenograft model; assay type: in vivo; settings: A549 Xenograft model
Method: Sub-cutaneous (SC) injection of 5×10^6 A549 tumor cells on the left flank of 48 female athymic nude mice. Randomization of mice 14 days after tumor cell injection into 6 groups of 8 mice each with a mean tumor volume of 134±5 mm3.
Formulation: 20% HPC, 2% ethanol solution in PBS for the compounds No. 45, 117 and 179.
• Normal saline for Erlotinib® Dosing route: Oral for the compounds No. 45, 117 and 179, and Erlotinib® Dose Volume: 10 mL/Kg body weight Dosing schedule: Once daily for 14 consecutive days (Q1Dx14) Dosage: • Group1. Vehicle control • Group2. Erlotinib®-100 MPK • Group3. Compound No. 45—10 MPK • Group4. Compound No. 45—30 MPK • Group5. Compound No. 45—100 MPK • Group6. Compound No. 117—30 MPK • Group7. Compound No. 117—100 MPK • Group8. Compound No. 179—10 MPK • Group9. […] Plasma collected for drug concentration estimation and whole blood was collected to isolate PBMCs (peripheral blood monocytes) to determine pStat3 inhibition by flow cytometry as PD readout. Tumors were snap frozen in liquid nitrogen and stored at −80° C. to estimate pStat3 by flow cytometry as PD readout EXPT. 2
SC injection of 5×10^6 A549 tumor cells on the left flank of 24 female athymic nude mice. Randomization of mice 14 days after tumor cell injection into 3 groups of 8 mice each with a mean tumor volume of 75±7 mm3.
Formulation: 20% HPC, 2% ethanol solution in PBS for the compound No. 45
• Normal saline for Erlotinib® Dosing route: Oral for compound No. 45 and Erlotinib® Dose Volume: 10 mL/Kg body weight Dosing schedule: Once daily for 14 consecutive days (Q1Dx14) Dosage: • Group1. Vehicle control • Group2. Compound No. 45—150 MPK • Group3. […] Plasma collected for drug concentration estimation and whole blood was collected to isolate PBMCs to determine pStat3 inhibition by flow cytometry as PD readout. Tumors were snap frozen in liquid nitrogen and stored at −80° C. to estimate pStat3 by flow cytometry as PD readout Results: […]

[10] = system: pStat3; experiment: Quantification of pStat3 in PBMCs by flow cytometry; assay type: in vivo, mice; settings: A549 Xenograft model
Method: Phosphorylation of Stat3 was stimulated by addition of hIL6 (10 ug/mL) for 30 min at 37° C. Blood was fixed with formaldehyde (final 2% v/v) for 10 min at 37° C.
Buffy coat (PBMCs) was separated by aspirating translucent layer using pipetteman and washed twice with PBS-1×
Pre chilled PBMC's were permeabilized by adding ice cold Methanol, while vortexing gently (final volume 90% MeOH v/v) and incubated for 30 min on ice.
Permeabilized PBMCs were washed with PBS once. PBMCs re-suspended to 2×10^6 cells in 200 μL of incubation buffer for 10 min at room temperature (RT). Primary Ab was added (1:100 dilution) and incubated 45 min at RT. Washed as before (twice) and re-suspended in fluorochrome conjugated secondary Ab (1:500 dilution) and incubated at RT in dark for 30 min. Washed and re-suspended in […] PBS.
(§2) Measured pStat3 using FACS caliber machine (BD). Unstained PBMCs was used for cytometry settings. […] Histograms (cell number V/s FL1-H) were plotted. Percentage of cells that are phosphorylated by IL6 stimulation (M2 population), and inhibition of phosphorylation by inhibitor (decrease in M2 population) are calculated on histogram by marking peaks, M1 and M2.

[11] = system: pStat3; experiment: Quantification of pStat3 in tumors by flow cytometry; assay type: in vivo, mice; settings: A549 Xenograft model
Method: as §2
Separate the tumour & 200 mg of tumour was crashed (45 mg per ml) by using IKA 10 at Speed #4 for 10 seconds. Sieve the tumour extract through 100 u, centrifuge at 900 g for 10 min. Re-suspend cells briefly in 0.5-1 ml PBS. Add formaldehyde to a final concentration of 2-4% formaldehyde. Fix for 10 minutes at 37° C. Chill tubes on ice for 1 minute.
Permeabilize cells by adding ice-cold 100% methanol slowly to pre-chilled cells, while gently vortexing, to a final concentration of 90% methanol. Alternatively, to remove fix prior to permeabilization, pellet cells by centrifugation and re-suspend in 90% methanol. Incubate 30 minutes on ice. Proceed with staining or store cells at −20° C. in 90% methanol. Aliquot 0.5-1×10^6 cells into each assay tube (by volume). Add 2-3 ml Incubation Buffer to each tube and rinse by centrifugation. Repeat. Re-suspend cells in 100 μl Incubation Buffer per assay tube. Analyze by flow cytometry like PBMCs.

Sequence of c-Src (P12931 whole entry, looked up): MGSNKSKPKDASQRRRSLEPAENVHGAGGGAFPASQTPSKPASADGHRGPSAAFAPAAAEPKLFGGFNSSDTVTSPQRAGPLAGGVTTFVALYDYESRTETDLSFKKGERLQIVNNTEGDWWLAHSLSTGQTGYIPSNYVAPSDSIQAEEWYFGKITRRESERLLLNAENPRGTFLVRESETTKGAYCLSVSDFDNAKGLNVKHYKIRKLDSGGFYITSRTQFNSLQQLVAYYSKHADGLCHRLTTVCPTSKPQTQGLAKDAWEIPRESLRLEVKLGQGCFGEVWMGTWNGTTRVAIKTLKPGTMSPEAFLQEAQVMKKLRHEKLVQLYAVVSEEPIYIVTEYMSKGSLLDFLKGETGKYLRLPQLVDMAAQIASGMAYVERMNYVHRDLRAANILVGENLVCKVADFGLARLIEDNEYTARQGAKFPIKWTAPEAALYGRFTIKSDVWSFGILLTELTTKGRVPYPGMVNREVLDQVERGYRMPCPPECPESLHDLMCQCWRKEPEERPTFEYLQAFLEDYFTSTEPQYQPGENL
Sequence of JAK2 (O60674 whole entry): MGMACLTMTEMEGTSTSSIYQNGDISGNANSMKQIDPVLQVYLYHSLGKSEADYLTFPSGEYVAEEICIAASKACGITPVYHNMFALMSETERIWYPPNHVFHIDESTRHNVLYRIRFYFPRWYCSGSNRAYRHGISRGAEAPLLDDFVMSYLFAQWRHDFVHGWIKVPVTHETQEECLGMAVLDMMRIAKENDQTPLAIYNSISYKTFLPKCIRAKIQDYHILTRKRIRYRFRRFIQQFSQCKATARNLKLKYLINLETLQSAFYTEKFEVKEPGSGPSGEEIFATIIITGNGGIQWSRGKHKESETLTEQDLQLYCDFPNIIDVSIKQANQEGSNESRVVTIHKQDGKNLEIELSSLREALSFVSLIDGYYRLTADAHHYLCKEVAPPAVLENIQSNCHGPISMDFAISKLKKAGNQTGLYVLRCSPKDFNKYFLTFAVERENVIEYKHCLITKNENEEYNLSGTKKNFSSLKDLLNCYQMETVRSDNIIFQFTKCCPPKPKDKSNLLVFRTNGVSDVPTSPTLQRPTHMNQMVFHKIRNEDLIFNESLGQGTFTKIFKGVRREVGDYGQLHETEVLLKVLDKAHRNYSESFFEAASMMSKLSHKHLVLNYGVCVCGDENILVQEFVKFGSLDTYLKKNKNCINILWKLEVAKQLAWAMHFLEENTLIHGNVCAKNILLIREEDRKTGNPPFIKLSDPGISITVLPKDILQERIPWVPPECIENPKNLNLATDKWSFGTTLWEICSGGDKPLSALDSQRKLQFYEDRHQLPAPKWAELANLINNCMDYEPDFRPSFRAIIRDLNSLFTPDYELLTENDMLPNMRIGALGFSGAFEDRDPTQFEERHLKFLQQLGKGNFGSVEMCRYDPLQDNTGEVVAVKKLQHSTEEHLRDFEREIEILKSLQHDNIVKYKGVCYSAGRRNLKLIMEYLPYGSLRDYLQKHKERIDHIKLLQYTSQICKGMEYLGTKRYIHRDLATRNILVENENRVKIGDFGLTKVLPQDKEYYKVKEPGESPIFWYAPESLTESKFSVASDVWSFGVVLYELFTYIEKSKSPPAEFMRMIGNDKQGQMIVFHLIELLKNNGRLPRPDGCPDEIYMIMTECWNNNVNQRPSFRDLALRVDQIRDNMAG
Sequence of JAK1 (P23458 whole entry): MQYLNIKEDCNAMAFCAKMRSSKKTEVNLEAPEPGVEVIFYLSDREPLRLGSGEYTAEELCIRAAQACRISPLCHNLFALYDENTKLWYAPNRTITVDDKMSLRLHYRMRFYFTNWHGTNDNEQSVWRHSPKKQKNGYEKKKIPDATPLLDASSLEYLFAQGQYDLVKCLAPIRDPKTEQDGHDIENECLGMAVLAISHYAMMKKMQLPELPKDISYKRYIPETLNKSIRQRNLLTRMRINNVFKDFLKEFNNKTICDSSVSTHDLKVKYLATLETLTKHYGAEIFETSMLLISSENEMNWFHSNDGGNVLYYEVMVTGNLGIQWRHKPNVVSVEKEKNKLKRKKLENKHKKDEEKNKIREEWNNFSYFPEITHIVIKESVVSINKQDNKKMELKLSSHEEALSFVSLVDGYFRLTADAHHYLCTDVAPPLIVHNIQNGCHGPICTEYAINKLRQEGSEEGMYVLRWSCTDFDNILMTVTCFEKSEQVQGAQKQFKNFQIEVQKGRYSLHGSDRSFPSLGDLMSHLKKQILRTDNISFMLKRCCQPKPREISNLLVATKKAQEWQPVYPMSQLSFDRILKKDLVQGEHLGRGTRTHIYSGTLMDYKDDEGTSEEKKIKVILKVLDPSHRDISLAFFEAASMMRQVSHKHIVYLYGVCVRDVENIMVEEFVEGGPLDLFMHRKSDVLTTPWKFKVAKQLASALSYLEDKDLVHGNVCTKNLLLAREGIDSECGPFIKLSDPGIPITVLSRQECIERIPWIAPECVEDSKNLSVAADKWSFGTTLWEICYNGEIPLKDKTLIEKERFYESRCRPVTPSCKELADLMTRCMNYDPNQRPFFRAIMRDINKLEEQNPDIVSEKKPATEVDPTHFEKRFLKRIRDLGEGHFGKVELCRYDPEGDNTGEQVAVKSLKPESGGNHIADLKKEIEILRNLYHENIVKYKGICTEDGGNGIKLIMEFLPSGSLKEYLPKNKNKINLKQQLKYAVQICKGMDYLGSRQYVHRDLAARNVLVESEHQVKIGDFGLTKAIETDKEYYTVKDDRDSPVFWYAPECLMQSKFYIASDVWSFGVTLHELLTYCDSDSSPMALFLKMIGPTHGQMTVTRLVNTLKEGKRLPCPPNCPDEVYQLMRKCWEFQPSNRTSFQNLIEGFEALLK

SMILES: Cc1ccc(NC(=O)c2cccc(C(F)(F)F)c2)cc1N1CCc2nc(Nc3ccc(OCCN4CCCC4)cc3)ncc2C1=O [Compound 7, N-(4-Methyl-3-{5-oxo-2-[4-(2-pyrrolidin-1-yl-ethoxy)-phenylamino]-7,8-dihydro-5H-pyrido[4,3-d]pyrimidin-6-yl}-phenyl)-3-trifluoromethyl-benzamide]
- IC50 [1]: 83 nM
- IC50 [2]: 16 nM
- EC50 [3]: 3600 nM
- EC50 [4]: 3400 nM
- EC50 [5]: 1450 nM
- IC50 [6]: 450 nM

SMILES: Cc1ccc(NC(=O)CCC(F)(F)F)cc1N1CCc2nc(Nc3ccc(N4CCN(C)CC4)cc3)ncc2C1 [Compound 131, 4,4,4-Trifluoro-N-(4-methyl-3-{2-[4-(4-methyl-piperazin-1-yl)-phenylamino]-7,8-dihydro-5H-pyrido[4,3-d]pyrimidin-6-yl}-phenyl)-butyramide]
- inhibition at 0.1 µM [2]: 74%
- inhibition at 1 µM [2]: 90%
- EC50 [3]: 880 nM
- Vd [7]: 7.14 L/kg

SMILES: Cc1ccc(NC(=O)CCC(F)(F)F)cc1N1CCc2nc(Nc3ccc(OCCN4CCCC4)cc3)ncc2C1 [Compound 147, 4,4,4-Trifluoro-N-(4-methyl-3-{2-[4-(2-pyrrolidin-1-yl-ethoxy)-phenylamino]-7,8-dihydro-5H-pyrido[4,3-d]pyrimidin-6-yl}-phenyl)-butyramide]
- IC50 [1]: 21 nM
- inhibition at 0.1 µM [1]: 88%
- inhibition at 1 µM [1]: 93%
- inhibition at 0.1 µM [2]: 67%
- inhibition at 1 µM [2]: 90%
- EC50 [3]: 720 nM
- Vd [7]: 20.6 L/kg

SMILES: Cc1ccc(NC(=O)CC(C)C(F)(F)F)cc1N1CCc2nc(Nc3ccc(OCCN4CCCC4)cc3)ncc2C1 (stereo not drawn) [Compound 155, 4,4,4-Trifluoro-3-methyl-N-(4-methyl-3-{2-[4-(2-pyrrolidin-1-yl-ethoxy)-phenylamino]-7,8-dihydro-5H-pyrido[4,3-d]pyrimidin-6-yl}-phenyl)-butyramide]
- IC50 [1]: 18 nM
- IC50 [2]: 2 nM
- EC50 [3]: 1200 nM
- Vd [7]: 11.8 L/kg

SMILES: CN1CCN(c2ccc(Nc3ncc4c(n3)CCN(c3cc(NC(=O)c5cccc(C(F)(F)F)c5)ccc3Cl)C4=O)cc2)CC1 [Compound 162, N-(4-Chloro-3-{2-[4-(4-methyl-piperazin-1-yl)-phenylamino]-5-oxo-7,8-dihydro-5H-pyrido[4,3-d]pyrimidin-6-yl}-phenyl)-3-trifluoromethyl-benzamide]
- IC50 [1]: 6 nM
- inhibition at 0.1 µM [1]: 92%
- inhibition at 1 µM [1]: 97%
- IC50 [2]: 27 nM
- inhibition at 0.1 µM [2]: 73%
- inhibition at 1 µM [2]: 81%
- EC50 [3]: 1380 nM
- EC50 [4]: 1140 nM
- EC50 [5]: 600 nM
- IC50 [6]: 350 nM
- Vd [7]: 3.35 L/kg

SMILES: Cc1cc(Nc2ncc3c(n2)CCN(c2cc(NC(=O)c4cccc(C(F)(F)F)c4)ccc2Cl)C3=O)ccc1N1CCN(C)CC1 [Compound 171, N-(4-Chloro-3-{2-[3-methyl-4-(4-methyl-piperazin-1-yl)-phenylamino]-5-oxo-7,8-dihydro-5H-pyrido[4,3-d]pyrimidin-6-yl}-phenyl)-3-trifluoromethyl-benzamide]
- IC50 [1]: 19 nM
- inhibition at 0.1 µM [1]: 92%
- inhibition at 1 µM [1]: 97%
- IC50 [2]: 20 nM
- inhibition at 0.1 µM [2]: 74%
- inhibition at 1 µM [2]: 87%
- inhibition at 0.1 µM ([8]; read-out: JAK1 % inhibition at 100 nM): 61%
- inhibition at 1 µM ([8]; read-out: JAK1 % inhibition at 1 μM): 84%
- EC50 [3]: 1300 nM
- EC50 [4]: 2100 nM
- IC50 [6]: 471 nM
- Vd [7]: 0.794 L/kg
- distribution volume (in words) [7]: weak volume of distribution

SMILES: Cc1ccc(NC(=O)c2cccc(C(F)(F)F)c2)cc1N1CCc2nc(Nc3ccc(OCCCN4CCN(C)CC4)cc3)ncc2C1=O [Compound 180, N-[4-Methyl-3-(2-{4-[3-(4-methyl-piperazin-1-yl)-propoxy]-phenylamino}-5-oxo-7,8-dihydro-5H-pyrido[4,3-d]pyrimidin-6-yl)-phenyl]-3-trifluoromethyl-benzamide]
- inhibition at 0.1 µM [1]: 67%
- inhibition at 1 µM [1]: 91%
- inhibition at 0.1 µM [2]: 66%
- inhibition at 1 µM [2]: 87%
- EC50 [3]: 1620 nM
- EC50 [4]: 1480 nM
- EC50 [5]: 1070 nM
- IC50 [6]: 140 nM

SMILES: O=C(COc1ccc(Nc2ncc3c(n2)CCN(c2cc(NC(=O)c4cccc(C(F)(F)F)c4)ccc2Cl)C3=O)cc1)NC1CC1 [Compound 185, N-(4-Chloro-3-[2-(4-(cyclopropylcarbamoylmethoxy)phenylamino)-5-oxo-7,8-dihydro-5H-pyrido[4,3-d]pyrimidin-6-yl]-phenyl}-3-trifluoromethyl-benzamide]
- Vd [7]: 0.583 L/kg

SMILES: C#Cc1cccc(Nc2ncnc3cc(OCCOC)c(OCCOC)cc23)c1 [Erlotinib, reference compound]
- % TGI (Tumor Growth Inhibition) ([9]; 100 MPK): 59.55%
- PBMCs % pStat3 inhibition ([10]; 100 MPK): 44.43%
- Tumors % pStat3 inhibition ([11]; 100 MPK): 28.14%

SMILES: CCC1=C[C@@H]2CN(C1)Cc1c([nH]c3ccccc13)[C@@](C(=O)OC)(c1cc3c(cc1OC)N(C)[C@H]1[C@@](O)(C(=O)OC)[C@H](OC(C)=O)[C@]4(CC)C=CCN5CC[C@]31[C@@H]54)C2 [Vinorelbine, reference compound]
- % TGI (Tumor Growth Inhibition) ([9]; 8 MPK): 51.89%
- PBMCs % pStat3 inhibition ([10]; 8 MPK): 28.8%
- Tumors % pStat3 inhibition ([11]; 8 MPK): 25.2%
